The values below come from ChEMBL document CHEMBL1201862, “PubChem BioAssay data set” (2004).

Among the test systems are HCT-15; SK-MEL-28; SK-MEL-5; HOP-92; M14; MCF7; A498; PC-3; HT-29; LOX IMVI; HCT-116; U-251; OVCAR-5; UACC-257; SK-OV-3.
Holding throughout (assay): DTP human tumour cell line panel, 48 h

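Assay format: 96-well plates, 48-hour exposure. Here, GI50 denotes the concentration required for 50% inhibition of growth.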 Active and inactive are the calls of the source. Cut-off read from the data, not from the text of the source: active = GI50 up to about 1.1 µM and inactive = higher. Some results are limits rather than exact numbers.

As a reminder, the GI50 is the concentration that inhibits growth by half. For `O=c1c(Nc2ccccc2)cn(CCOc2ccccc2)c(=O)n1CCOc1ccccc1`, the GI50 in the test with HCT-15 was over 100 µM; with SK-MEL-28 it was > 100 µM (inactive); with SK-MEL-5 it was 47.9 µM (inactive); in the test on HOP-92 it was 35.6 µM (inactive); with M14, 70.5 µM (inactive); in the test with MCF7 it was > 100 µM (inactive). Further, the GI50 was > 100 µM (inactive) with A498; 34.8 µM (inactive) in the test on PC-3; > 100 µM (inactive) in the test with HT-29; > 100 µM (inactive) in the test with LOX IMVI; > 100 µM (inactive) in the test with HCT-116; > 100 µM (inactive) with U-251. Further, the GI50 was 57.5 µM (inactive) in the test on OVCAR-5 and 83.2 µM (inactive) in the test with UACC-257.
`O=c1c2cc(S(=O)(=O)Nc3ccccc3Cl)ccc2ncn1NS(=O)(=O)c1ccc(Br)cc1`: the GI50 in the test on HCT-15 is over 37.5 µM; in the test with SK-MEL-28, > 37.5 µM (inactive); in the test on HOP-92 it was > 37.5 µM (inactive); in the test on M14, > 37.5 µM (inactive); in the test with MCF7, > 37.5 µM (inactive); in the test with PC-3, > 37.5 µM (inactive). The GI50 in the test with HT-29, in the test on LOX IMVI, in the test with HCT-116, with U-251, in the test with OVCAR-5 and with UACC-257 was > 37.5 µM (inactive) throughout. The GI50 with SK-OV-3 is > 37.5 µM (inactive).
On to `CCNC(=O)Nc1ccccn1`, for which the GI50 in the test with SK-MEL-28, with SK-MEL-5, in the test with HOP-92, in the test with M14, in the test with MCF7 and in the test with A498 was > 100 µM (inactive) in each case. Also, the GI50 with PC-3, with HT-29, in the test with HCT-116, in the test with U-251, with OVCAR-5 and with UACC-257 was > 100 µM (inactive) each time. In the test on SK-OV-3, the GI50 is > 100 µM (inactive).
Turning to `CC(C)(CO)CNc1nc(N)nc(Cl)c1C=O`, the GI50 in the test with HCT-15 is 15.3 µM; in the test with SK-MEL-28, 24.4 µM (inactive); in the test with SK-MEL-5, 30.7 µM (inactive); in the test on HOP-92, 26.2 µM (inactive); in the test with MCF7, 50.4 µM (inactive); with A498, > 100 µM (inactive). Further, the GI50 is 16.8 µM (inactive) with PC-3; 45.2 µM (inactive) with HT-29; 16.4 µM (inactive) in the test on LOX IMVI; 20 µM (inactive) in the test with HCT-116; 32.8 µM (inactive) in the test with U-251; > 100 µM (inactive) in the test with OVCAR-5. For the same molecule, the GI50 in the test with UACC-257 was 35.4 µM (inactive).
For `Cn1/c(=N\S(=O)(=O)c2ccccc2)[nH]c2ccccc21`, the concentration for 50% growth inhibition (GI50) was over 100 µM in the test on HCT-15; > 100 µM (inactive) in the test on SK-MEL-28; > 100 µM (inactive) in the test on SK-MEL-5; > 100 µM (inactive) in the test with HOP-92; > 100 µM (inactive) in the test on M14; > 100 µM (inactive) in the test on MCF7. Moreover, the GI50 in the test with A498, with HT-29, in the test on HCT-116, in the test on U-251, in the test on OVCAR-5 and in the test on UACC-257 was > 100 µM (inactive) in each case. In addition, in the test with SK-OV-3, the GI50 was > 100 µM (inactive).
Take `Cc1ncc(CO)c(CN)c1O`: the GI50 was over 100 µM in the test on HCT-15; > 100 µM (inactive) in the test on SK-MEL-28; > 100 µM (inactive) with SK-MEL-5; > 100 µM (inactive) in the test with M14; > 100 µM (inactive) in the test on MCF7; > 100 µM (inactive) in the test with A498. The GI50 in the test on PC-3, with HT-29, in the test with LOX IMVI, in the test with HCT-116, in the test on U-251 and with OVCAR-5 was > 100 µM (inactive) throughout. Moreover, the GI50 in the test on UACC-257 and in the test with SK-OV-3 was > 100 µM (inactive) each time.
Turning to `Cc1ccc(S[C@@H](C)[C@@](O)(C(N)=O)c2ccccc2)cc1`, the GI50 with HCT-15 is 84.3 µM; in the test with SK-MEL-28 it was > 100 µM (inactive); in the test on SK-MEL-5, 20.6 µM (inactive); in the test on HOP-92, 18.7 µM (inactive); in the test with M14, > 100 µM (inactive); in the test with MCF7, 44.8 µM (inactive). For the same molecule, the GI50 with PC-3 was 35.4 µM (inactive); with HT-29, 41.3 µM (inactive); with LOX IMVI, 14.7 µM (inactive); in the test with HCT-116 it was 35.2 µM (inactive); in the test on U-251, 70.3 µM (inactive); with OVCAR-5, > 100 µM (inactive). Moreover, the GI50 in the test with UACC-257 was 13 µM (inactive); in the test on SK-OV-3, > 100 µM (inactive).
As for `O=S(=O)(O)c1ccc(/N=N/c2ccc(/N=N/c3c(O)ccc4cc(S(=O)(=O)O)ccc34)cc2)cc1`, the GI50 in the test on HCT-15 was over 100 µM; in the test on SK-MEL-28, > 100 µM (inactive); in the test on SK-MEL-5, > 100 µM (inactive); in the test with HOP-92 it was > 100 µM (inactive); with M14, > 100 µM (inactive); in the test on MCF7, > 100 µM (inactive). The GI50 in the test with PC-3, in the test with HT-29, with HCT-116, in the test with U-251, in the test on OVCAR-5 and in the test on UACC-257 was > 100 µM (inactive) each time. In the test on SK-OV-3, the GI50 was > 100 µM (inactive).
On to `O=C(O)c1ccc(C(O)(c2ccccc2)c2ccccc2)cc1`, for which the GI50 in the test with HCT-15 was over 100 µM; in the test with SK-MEL-28, > 100 µM (inactive); in the test with SK-MEL-5, > 100 µM (inactive); with M14, > 100 µM (inactive); in the test on MCF7, > 100 µM (inactive); in the test on PC-3 it was > 100 µM (inactive). The GI50 with LOX IMVI, in the test on HCT-116, with U-251, with OVCAR-5, in the test with UACC-257 and in the test with SK-OV-3 was > 100 µM (inactive) each time.
Take `CCOC(=O)c1cc(C2=CCNC2=O)c(-c2cc(C)no2)[nH]1`: the GI50 in the test on HCT-15 is 92.9 µM; in the test on SK-MEL-28 it was 92.5 µM (inactive); in the test on SK-MEL-5, 66.7 µM (inactive); with M14 it was 51.1 µM (inactive); in the test on MCF7 it was 70 µM (inactive); in the test with A498, > 100 µM (inactive). In addition, the GI50 is 55.6 µM (inactive) in the test with PC-3; 43.5 µM (inactive) in the test on HT-29; 86.5 µM (inactive) with LOX IMVI; 31.1 µM (inactive) in the test on HCT-116; 62.5 µM (inactive) in the test on U-251; > 100 µM (inactive) in the test on OVCAR-5. Moreover, the results for the GI50 with UACC-257 and in the test with SK-OV-3 were > 100 µM (inactive) and 31.3 µM (inactive), respectively.
Consider `c1ccc2c(c1)ncn2C1CCCCO1` (stereo unspecified), for which the GI50 with HCT-15 is over 100 µM; with SK-MEL-28, > 100 µM (inactive); with SK-MEL-5 it was > 100 µM (inactive); in the test with HOP-92, > 100 µM (inactive); in the test on M14, > 100 µM (inactive); with MCF7, > 100 µM (inactive). Moreover, the GI50 with PC-3, with HT-29, in the test with LOX IMVI, in the test on HCT-116, in the test on U-251 and in the test on OVCAR-5 was > 100 µM (inactive) each time. Also, the GI50 in the test on UACC-257 and in the test with SK-OV-3 was > 100 µM (inactive) throughout.
As to `Cc1sc(C)c2c1C(=O)CC2N` (stereo unspecified), the GI50 with HCT-15 is 31.3 µM; in the test on SK-MEL-28, > 42.7 µM (inactive); with SK-MEL-5 it was 46.3 µM (inactive); with HOP-92 it was 18.5 µM (inactive); in the test on M14 it was 14.1 µM (inactive); in the test with A498, > 100 µM (inactive). The GI50 with PC-3 is 27.4 µM (inactive); in the test on HT-29 it was 24.9 µM (inactive); in the test on LOX IMVI it was 13.1 µM (inactive); with HCT-116 it was 14.5 µM (inactive); in the test with U-251, 76.4 µM (inactive); in the test with OVCAR-5 it was > 100 µM (inactive). Also, the GI50 was 17.5 µM (inactive) in the test with UACC-257 and > 76.6 µM (inactive) with SK-OV-3.
Turning to `CN(C)c1nc2oc(-c3ccccc3)c(-c3ccccc3)c2c2nncn12`, the GI50 was over 100 µM in the test with HCT-15; > 100 µM (inactive) in the test on SK-MEL-28; > 100 µM (inactive) in the test with HOP-92; > 100 µM (inactive) with M14; > 100 µM (inactive) in the test with MCF7; > 100 µM (inactive) with A498. Moreover, the GI50 with HT-29, in the test on LOX IMVI, in the test with HCT-116, in the test on U-251, in the test with OVCAR-5 and with UACC-257 was > 100 µM (inactive) each time. Also, the GI50 in the test on SK-OV-3 was > 100 µM (inactive).
`COc1ccc(Cn2c(=O)c(OC)c(C)c3cc4ccccc4cc32)cc1`: the GI50 in the test on HCT-15 is 27 µM; in the test with SK-MEL-28, 94.6 µM (inactive); in the test on SK-MEL-5 it was 6.21 µM (inactive); with M14, 41.2 µM (inactive); in the test with MCF7, 33.7 µM (inactive); in the test on PC-3, 16.1 µM (inactive). Further, the GI50 in the test with HT-29 is 31.4 µM (inactive); with LOX IMVI, 18.4 µM (inactive); with HCT-116, 18.6 µM (inactive); with U-251 it was 23 µM (inactive); in the test on OVCAR-5, 54.5 µM (inactive); in the test on UACC-257 it was 2.99 µM (inactive). For the same molecule, the GI50 with SK-OV-3 was 42.3 µM (inactive).
`Cc1cc(=O)[nH]c(-n2[nH]c3c(c2=O)CCCC3)n1`: the GI50 is 31.3 µM with HCT-15; 45.7 µM (inactive) with SK-MEL-28; 82 µM (inactive) in the test with SK-MEL-5; 31 µM (inactive) in the test on HOP-92; 73.1 µM (inactive) with M14; 63 µM (inactive) with MCF7. For the same molecule, the GI50 with A498 was > 100 µM (inactive); in the test on PC-3, 68.1 µM (inactive); in the test on HT-29, 44.5 µM (inactive); in the test on HCT-116, 41.9 µM (inactive); with U-251, 58.5 µM (inactive); in the test on OVCAR-5, 69 µM (inactive). Further, the GI50 was 66.5 µM (inactive) with UACC-257 and 93.1 µM (inactive) in the test on SK-OV-3.
